The structures appear in SMILES notation. Active and inactive are the calls of the source.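 The calls were made as follows: active = fitted curve reaching 40% activation at or below the top valid dose tested; inconclusive = flat curve at 30 to 70% activation, or poor fit; inactive = the rest.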

The assay has as its system SK-MEL-5 TRPM1 promoter luciferase reporter, 24 h. Put plainly: MITF activators via TRPM1 promoter reporter, dose response, SK-MEL-5 cells, luciferase, cherry-pick samples (AID 540258).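 Also: potency for activators that raise TRPM1 promoter luciferase signal.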
With `c1ccc(-c2cnnc(N3CCCCC3)n2)cc1`, the AC40 is 992 nM. Take `O=C(c1cnn2ccccc12)N1CCc2ccccc21`: the AC40 was 1280 nM. In the case of `c1ccc(Cc2cc(-c3ccccc3)on2)cc1`, the AC40 is 2580 nM. For the compound `c1ccc(-c2ccc3[nH]ccc3c2)cc1`, the AC40 was 14000 nM. Consider `CC(=O)Nc1cccc(-c2nc3ccc(NC(C)=O)cc3s2)c1`, for which the AC40 was 1300 nM.

For `c1ccc(-n2nnc(-c3cccnc3)n2)cc1`, the AC40 is 8400 nM. On to `Nc1ccc(O)c2c(=O)cc(-c3ccccc3Cl)oc12`, for which the AC40 was 1130 nM.

For the compound `CC(Cc1ccccc1)/[N+]([O-])=C\c1ccc(C(F)(F)F)cc1` (stereo not given), the AC40 was 8220 nM. `Nc1c(C(=O)N2CCCC2)sc2nc(-c3ccccc3)ccc12`: the AC40 is 6190 nM.

For the compound `c1ccc(-c2noc(CCC3CCCC3)n2)cc1`, the AC40 was 4350 nM. With `ClCCn1cnc2c(SCc3ccccc3)ncnc21` the figure was 3640 nM; with `CC(C)(C)c1ccc(SCCc2ccccn2)cc1`, 1980 nM. With `COC(=O)Cc1ccc(NC(=O)c2ccc(C)c(C)c2)cc1` the figure was 1490 nM; with `Clc1ccc(-n2nnc(-c3ncc[nH]3)n2)cc1Cl`, 7370 nM. With `COc1c(C)cccc1C(=O)Nc1ccc(N2CCN(S(C)(=O)=O)CC2)cc1` the figure was 4980 nM; with `O=C(Nc1ccc(F)cc1Cl)c1ccc2c(=O)n3c(nc2c1)CCC3`, 3500 nM; with `Cc1ccc(NC(=O)C2C3/C=C\CCCCC32)cc1` (stereo not given), 4540 nM.

For the compound `O=C(N/C=C/c1ccccc1)c1ccccc1`, the AC40 is 551 nM. `O=C(CC1CCCC1)Nc1ccc(Br)cc1`: the AC40 is 11600 nM. `O=C(CCNc1ccccc1)c1ccc2c(c1)OCO2`: the AC40 was 1120 nM. With `O=C(NCc1ccc2c(c1)OCO2)Nc1cccc(Cl)c1` the figure was 8570 nM. Then `COC(=O)c1ccc(Nc2ncnc3sccc23)cc1`, with 7470 nM.

Regarding `Cc1ccc(C(=O)Nc2ncccc2S(=O)(=O)c2ccccc2)cc1`, the AC40 was 2940 nM. With `Clc1ccc(OCc2noc(-c3ccsc3)n2)c(Cl)c1` the figure was 1450 nM; with `CC(C)(C)n1ncc2c(=O)n(CC(=O)c3ccccc3)cnc21`, 2870 nM; with `N#Cc1ccsc1NC(=O)CCc1ccccc1`, 9770 nM. Regarding `O=C(O)c1ccc(N/N=C/c2cccc(C(F)(F)F)c2)cc1`, the AC40 was 488 nM.

With `COc1cccc(NC(=O)c2csc3c2CCCC3)c1`, the AC40 is 4800 nM. With `c1ccc(-n2ncc3c(NCc4cccs4)ncnc32)cc1` the figure was 2660 nM.

As for `CCCCNc1ccc2c(c1)C1CC2CCN1C(=O)OCc1ccccc1` (stereo not given), the AC40 was 3320 nM. `COc1ccc(/C=C/c2nc3ccccc3n2Cc2ccc(OC)c(OC)c2)cc1`: the AC40 was 1930 nM. Then `c1ccc2oc(CCc3nc4ccccc4o3)nc2c1`, with > 35000 nM (inactive). With `COc1cccc(Nc2nc(-c3ccc(O)cc3)cs2)c1` the figure was 3180 nM; with `O=C(Nc1ccc(N2CCCCC2)cc1)c1cncc(Br)c1`, 969 nM; with `COc1ccc(-c2csc(-n3cccn3)n2)cc1`, 1100 nM.

Turning to `CC(C)c1ccc(CNc2ncc(Br)cn2)cc1`, the AC40 is 3760 nM. With `O=C(Nc1ccc2c(c1)OCO2)c1cc(-c2ccccc2Cl)on1` the figure was 2060 nM; with `CS(=O)(=O)N1N=C(c2ccc(Br)cc2)CC1c1ccc2c(c1)OCO2` (stereo not given), 2950 nM; with `CCc1ccc(NC(=O)C(=S)NC2CCCCC2)cc1`, 542 nM. Then `O=C(Nc1ccccc1)O/N=C/c1ccc(F)cc1`, with 883 nM. `Cc1cc(C)c(NN=c2c(=O)c3ccccc3c2=O)c(C)c1`: the AC40 was 531 nM. With `Nc1ccc2oc(-c3cccs3)nc2c1` the figure was 4760 nM. For `Cc1ccc(Nc2cc(C)c3c(O)cccc3n2)cc1C`, the AC40 was 3400 nM.

On to `Cc1ccc(NC(=O)c2ccc3ccccc3n2)cc1S(=O)(=O)N(C)C`, for which the AC40 was 2370 nM. As to `O=C(NC1CCCC1)c1cc(-c2ccc(Cl)cc2Cl)on1`, the AC40 is 393 nM.

The values are drawn from PubChem BioAssay AID540258 (Broad Institute, 2011).
